According to patent US20210220374A1, “METHODS OF TREATING TE[…]” (Clarus Therapeutics, Inc., priority 2013, published 2021):
Several values for one entry are separate records, joined by “and”; a condition that tells them apart may be missing. Identical values can stand only once.

Columns and labels:
[1] = Seven-day repeat-dose pharmacokinetic study (study LOT-A), TU BID; type: in vivo, hypogonadal men; conditions: for Baseline-corrected Cavg / Tmax: serum T
Method: The probability model was based on the pharmacokinetic results obtained from the hypogonadal patient population that participated in the two multi-dose TU treatments in study LOT-A. As noted previously, 29 hypogonadal males participated in the study, 28 of them completed Treatment Period 1 (300 mg T, as TU, BID) and 24 of them completed Treatment Period 3 (200 mg T, as TU, BID).
Formulation B was studied for its acute tolerability and steady-state serum pharmacokinetic profile at two doses administered twice-daily to hypogonadal men. The study was designed as an open-label, repeat dose, cross-over, pharmacokinetic study (with food effect examined in one arm).
Twenty nine (29) hypogonadal men were enrolled after giving written informed consent, 24 of which completed the study. Each subject who completed the study received a regimen of Formulation B as follows: […]
1. 7 daily doses of 600 mg T as TU BID (300 mg/dose), i.e., 3 capsules/dose 2. 8 daily doses of 400 mg T as TU BID (200 mg/dose)
Doses were administered as capsules to subjects 30 minutes after initiation of meals (breakfast and dinner), except for Day 8, when the morning dose was administered fasting.

[2] = Optimal sampling time: pooled steady-state serum T data of LOT-AA and LOT-BB, 200 mg T BID as TU; type: in vivo, hypogonadal men
Method: An investigation was conducted to identify a single optimal sampling time for monitoring the responsiveness of hypogonadal male patients subjects to chronic BID dosing of T using a SEDDS formulation of TU. Concentration data and derived pharmacokinetic parameters for 41 subjects from two studies (LOT-AA and LOT-BB) where subjects received 200 mg BID of T, as TU, for at least seven days were used in this investigation. Correlation and contingency table approaches were used in the investigation.
Concentration data and pharmacokinetic parameters from hypogonadal male subjects that participated in study LOT-AA and study LOT-BB were combined into a single data set. From study LOT-AA, only the information from Day 7 of Treatment 3 (8 days of treatment with 200 mg BID of T, as TU) was used. Study LOT-AA contributed data from 26 subjects treated for 7 days, and study LOT-BBBB contributed data from 15 subjects treated for 28 days with 200 mg BID of T, as TU. Combining of the data from these two groups of subjects is supported by the finding from study LOT-BBBB that T steady-state is reached in 5-7 days.
The sample collection times for these two studies both spanned a 12-hour window, but not all sample collection times were common to both studies. LOT-AA used sample collection times of 0, 1, 2, 4, 8 and 12 hours; LOT-BBBB used sample collection times of 0, 1.5, 3, 4, 5, 6, 8 and 12 hours. The current analysis used the superset of the combined set of collection times (0, 1, 1.5, 2, 3, 4, 5, 6, 8 and 12 hours). Concentration values that were missing for a subject in either of the data sets at a particular sample collection time were estimated by linear interpolation, using the existing nearest neighbor concentration values for that subject, i.e., interpolation of missing data was subject-specific.

[3] = LOT-AA subjects, estimated by linear interpolation
[4] = LOT-BB subjects, estimated by linear interpolation

With CCCCCCCCCCC(=O)O[C@H]1CC[C@H]2[C@@H]3CCC4=CC(=O)CC[C@]4(C)[C@H]3CC[C@]12C [TU, testosterone undecanoate] the “Decrease in serum T exposures (Cmax and AUC)” value ([1]; fasting conditions vs meal) was “greater than 50%”, the “DHT concentrations as percent of T concentrations” value ([1]; in vivo) was 11-34% and the “Pre-dose steady-state estradiol concentrations” value ([1]; in vivo) was 20 to 30 pg/mL. The “Mean baseline T concentration (endogenous T production)” value (“Mean baseline T concentration” for short) ([1]; prior to Treatment Period 2, after washout) was 152 ng/dL, the “Mean baseline T concentration” value ([1]; prior to Treatment Period 3, after washout) was 139 ng/dL and the “Mean baseline T concentration” value ([1]; prior to Treatment Period 4, after washout) was 145 ng/dL. For the same compound, the “Baseline-corrected Cavg” value ([1]; 200 mg BID) was 379 ± 255, the “Baseline-corrected Cavg” value ([1]; 300 mg BID) was 586 ± 330 and the Tmax ([1]; 300 mg BID, AM dose) was 4.5 ± 2.1 h. For the same compound, the Tmax ([1]; 300 mg BID, PM dose) was 17.9 ± 2.6 h, the “Subjects with serum T Cavg in the eugonadal range over 24 hours” value ([1]; simulated 24-hour profile from 12-hour data, 200 mg T (as TU) BID, fed) was 77% and the “T concentration 3 hr, individual subjects” value [2, 3] was 777 ng/dL and 785 ng/dL and 590 ng/dL and 433 ng/dL and 984 ng/dL and 1030 ng/dL and 1345 ng/dL and 936 ng/dL and 164 ng/dL and 183 ng/dL and 193 ng/dL and 353 ng/dL and 844 ng/dL and 700 ng/dL and 411 ng/dL and 891 ng/dL and 438 ng/dL and 271 ng/dL and 243 ng/dL and 160 ng/dL and 415 ng/dL and 308 ng/dL and 1270 ng/dL and 918 ng/dL and 837 ng/dL and 546 ng/dL. For the same compound, the “T concentration 5 hr, individual subjects” value [2, 3] was 978 ng/dL and 778 ng/dL and 686 ng/dL and 595 ng/dL and 865 ng/dL and 847 ng/dL and 1289 ng/dL and 886 ng/dL and 209 ng/dL and 248 ng/dL and 324 ng/dL and 311 ng/dL and 1065 ng/dL and 788 ng/dL and 418 ng/dL and 1012 ng/dL and 579 ng/dL and 427 ng/dL and 450 ng/dL and 205 ng/dL and 380 ng/dL and 503 ng/dL and 1533 ng/dL and 740 ng/dL and 768 ng/dL and 969 ng/dL, the “T concentration 6 hr, individual subjects” value [2, 3] was 856 ng/dL and 606 ng/dL and 540 ng/dL and 590 ng/dL and 690 ng/dL and 653 ng/dL and 1048 ng/dL and 703 ng/dL and 232 ng/dL and 248 ng/dL and 423 ng/dL and 314 ng/dL and 789 ng/dL and 648 ng/dL and 415 ng/dL and 1145 ng/dL and 503 ng/dL and 539 ng/dL and 622 ng/dL and 216 ng/dL and 367 ng/dL and 639 ng/dL and 1296 ng/dL and 597 ng/dL and 588 ng/dL and 1283 ng/dL and the “T concentration […], individual subjects” value [2, 3] was 371 ng/dL and 435 ng/dL and 297 ng/dL and 272 ng/dL and 632 ng/dL and 595 ng/dL and 845 ng/dL and 802 ng/dL and 162 ng/dL and 87 ng/dL and 150 ng/dL and 427 ng/dL and 214 ng/dL and 312 ng/dL and 454 ng/dL and 1081 ng/dL and 267 ng/dL and 241 ng/dL and 204 ng/dL and 116 ng/dL and 492 ng/dL and 237 ng/dL and 757 ng/dL and 654 ng/dL and 457 ng/dL and 403 ng/dL. The “T concentration 1 hr, individual subjects” value ([2]; LOT-AA subjects, observed) was 287 ng/dL and 251 ng/dL and 246 ng/dL and 280 ng/dL and 335 ng/dL and 170 ng/dL and 530 ng/dL and 801 ng/dL and 183 ng/dL and 57 ng/dL and 140 ng/dL and 456 ng/dL and 80 ng/dL and 153 ng/dL and 506 ng/dL and 1260 ng/dL and 314 ng/dL and 256 ng/dL and 199 ng/dL and 105 ng/dL and 547 ng/dL and 225 ng/dL and 744 ng/dL and 354 ng/dL and 187 ng/dL and 368 ng/dL, the “T concentration 2 hr, individual subjects” value ([2]; LOT-AA subjects, observed) was 454 ng/dL and 619 ng/dL and 347 ng/dL and 264 ng/dL and 928 ng/dL and 1020 ng/dL and 1160 ng/dL and 802 ng/dL and 140 ng/dL and 116 ng/dL and 159 ng/dL and 397 ng/dL and 348 ng/dL and 471 ng/dL and 402 ng/dL and 902 ng/dL and 219 ng/dL and 226 ng/dL and 208 ng/dL and 126 ng/dL and 437 ng/dL (2×) and 248 ng/dL and 770 ng/dL and 953 ng/dL and 726 ng/dL and the “T concentration 1 hr, individual subjects” value [2, 4] was 545 ng/dL and 531 ng/dL and 279 ng/dL (2×) and 92 ng/dL and 152 ng/dL and 161 ng/dL and 234 ng/dL and 446 ng/dL and 869 ng/dL and 248 ng/dL and 365 ng/dL and 127 ng/dL and 233 ng/dL and 271 ng/dL. For the same compound, the “T concentration 2 hr, individual subjects” value [2, 4] was 506 ng/dL and 725 ng/dL and 490 ng/dL and 149 ng/dL and 168 ng/dL and 394 ng/dL and 281 ng/dL and 812 ng/dL and 770 ng/dL and 461 ng/dL and 274 ng/dL and 166 ng/dL and 350 ng/dL and 346 ng/dL and 349 ng/dL, the “T concentration 3 hr, individual subjects” value ([2]; LOT-BB subjects, observed) was 425 ng/dL and 778 ng/dL and 723 ng/dL and 243 ng/dL and 241 ng/dL and 873 ng/dL and 360 ng/dL and 1440 ng/dL and 684 ng/dL and 908 ng/dL and 179 ng/dL and 259 ng/dL and 553 ng/dL and 461 ng/dL and 445 ng/dL and the “T concentration 5 hr, individual subjects” value ([2]; LOT-BB subjects, observed) was 486 ng/dL and 1020 ng/dL and 332 ng/dL and 125 ng/dL and 1230 ng/dL and 714 ng/dL and 1270 ng/dL and 1690 ng/dL and 514 ng/dL and 999 ng/dL and 214 ng/dL and 458 ng/dL and 1330 ng/dL and 289 ng/dL and 507 ng/dL. The “T concentration 6 hr, individual subjects” value ([2]; LOT-BB subjects, observed) was 671 ng/dL and 1660 ng/dL and 292 ng/dL and 238 ng/dL and 828 ng/dL and 773 ng/dL and 972 ng/dL and 1340 ng/dL and 593 ng/dL and 538 ng/dL and 620 ng/dL and 351 ng/dL and 1420 ng/dL and 320 ng/dL and 441 ng/dL, the “T concentration […], individual subjects” value ([2]; LOT-BB subjects, observed) was 547 ng/dL and 699 ng/dL and 374 ng/dL and 102 ng/dL and 132 ng/dL and 155 ng/dL and 242 ng/dL and 498 ng/dL and 813 ng/dL and 237 ng/dL and 321 ng/dL and 120 ng/dL and 249 ng/dL and 288 ng/dL and 301 ng/dL and the “C(0), Max” value ([2]; serum T, N 41) was 1600 ng/dL. For the same compound, the “C(0), Mean” value ([2]; serum T, N 41) was 363 ng/dL, the “C(0), Median” value ([2]; serum T, N 41) was 244 ng/dL and the “C(0), Min” value ([2]; serum T, N 41) was 61.0 ng/dL. The “C(1), Max” value ([2]; serum T, N 41) was 1260 ng/dL, the “C(1), Mean” value ([2]; serum T, N 41) was 338 ng/dL and the “C(1), Median” value ([2]; serum T, N 41) was 271 ng/dL. The “C(1), Min” value ([2]; serum T, N 41) was 57.3 ng/dL, the “C(1.5), Max” value ([2]; serum T, N 41) was 1081 ng/dL and the “C(1.5), Mean” value ([2]; serum T, N 41) was 391 ng/dL. For the same compound, the “C(1.5), Median” value ([2]; serum T, N 41) was 312 ng/dL, the “C(1.5), Min” value ([2]; serum T, N 41) was 86.6 ng/dL and the “C(2), Max” value ([2]; serum T, N 41) was 1160 ng/dL. The “C(2), Mean” value ([2]; serum T, N 41) was 466 ng/dL, the “C(2), Median” value ([2]; serum T, N 41) was 397 ng/dL and the “C(2), Min” value ([2]; serum T, N 41) was 116 ng/dL. For the same compound, the “C(3), Max” value ([2]; serum T, N 41) was 1440 ng/dL, the “C(3), Mean” value ([2]; serum T, N 41) was 600 ng/dL and the “C(3), Median” value ([2]; serum T, N 41) was 546 ng/dL.
